These results are taken from US10544106B2, “Certain chemical entities, compositions, and methods” (NeuPharma, Inc., priority 2016, dated 2020).

Molecules are shown by their SMILES.

The target of the test is BTK (Homo sapiens (Human), UniProt Q06187). Nature of the test: Z'-LYTE kinase inhibition assay against BTK. Type of test: biochemical. The note with it: for inhibition at 0.1 µM: compound at 100 nM, ATP concentration at Km; for IC50: series of concentrations, GraphPad Prism 5. Summed up: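 Compounds were titrated over 10 points (3-fold steps, 1% DMSO) against BTK (1.04-10.4 ng) using Tyr 01 substrate at 2 μM and ATP at Km, pH 7.5 HEPES buffer with MgCl2 and EGTA. After one hour each of reaction and development at room temperature, fluorescence gave percent inhibition and IC50.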
Chain of BTK (Q06187 whole entry): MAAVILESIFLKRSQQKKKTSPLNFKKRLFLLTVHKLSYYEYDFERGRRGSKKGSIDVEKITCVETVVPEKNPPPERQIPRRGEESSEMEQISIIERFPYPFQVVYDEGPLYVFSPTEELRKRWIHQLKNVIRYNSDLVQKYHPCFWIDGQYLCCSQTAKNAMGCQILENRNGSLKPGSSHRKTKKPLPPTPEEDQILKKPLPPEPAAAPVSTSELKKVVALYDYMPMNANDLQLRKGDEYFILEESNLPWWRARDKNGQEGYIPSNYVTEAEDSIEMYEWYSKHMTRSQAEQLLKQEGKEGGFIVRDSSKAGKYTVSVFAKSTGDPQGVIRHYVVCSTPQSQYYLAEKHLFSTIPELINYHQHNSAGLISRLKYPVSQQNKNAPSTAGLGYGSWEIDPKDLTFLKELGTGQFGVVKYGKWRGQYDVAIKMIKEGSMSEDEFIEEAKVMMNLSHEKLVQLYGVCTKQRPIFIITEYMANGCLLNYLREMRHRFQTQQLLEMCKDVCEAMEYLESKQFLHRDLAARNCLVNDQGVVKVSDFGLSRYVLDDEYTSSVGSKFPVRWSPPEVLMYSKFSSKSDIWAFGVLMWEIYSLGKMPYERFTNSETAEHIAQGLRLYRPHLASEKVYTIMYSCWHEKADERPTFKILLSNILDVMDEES

For the molecule `C=CC(=O)Nc1cccc(-c2cc(-c3ccccc3C#N)cc3cnc(N)nc23)c1` [C091, N-(3-(2-amino-6-(2-cyanophenyl)quinazolin-8-yl)phenyl)acrylamide], the inhibition at 0.1 µM is greater than 50% and the half-maximal inhibitory concentration (IC50) is less than 0.1 µM. With `C=CC(=O)Nc1cccc(-c2cc(-c3ccc(C(=O)Nc4cccc(F)c4)nc3)cc3cncnc23)c1` [C092, 5-(8-(3-acrylamidophenyl)quinazolin-6-yl)-N-(3-fluorophenyl)picolinamide], the inhibition at 0.1 µM was greater than 50%. Turning to `C=CC(=O)N1CCC(c2cc(-c3ccc(C(=O)Nc4cccc(C(F)(F)F)c4)nc3)cc3cncnc23)C1` (centres unmarked) [C093, 5-(8-(1-acryloylpyrrolidin-3-yl)quinazolin-6-yl)-N-(3-(trifluoromethyl)phenyl)picolinamide], the inhibition at 0.1 µM was less than 50%. Consider `C=CC(=O)N1CCC(c2cc(-c3ccc(C(=O)Nc4ccccn4)cc3F)cc3cncnc23)C1` (centres unmarked) [C094, 4-(8-(1-acryloylpyrrolidin-3-yl)quinazolin-6-yl)-3-fluoro-N-(pyridin-2-yl)benzamide], for which the inhibition at 0.1 µM is less than 50%. In the case of `C=CC(=O)N1CCC(c2cc(-c3ccc(Oc4cccc(F)c4)nc3)cc3cncnc23)C1` (centres unmarked) [C095, 1-(3-(6-(6-(3-fluorophenoxy)pyridin-3-yl)quinazolin-8-yl)pyrrolidin-1-yl)prop-2-en-1-one], the inhibition at 0.1 µM was less than 50%. For the molecule `C=CC(=O)Nc1cccc(-c2cc(-c3ccc(Oc4ccccc4F)nc3)cc3cncnc23)c1` [C096, N-(3-(6-(6-(2-fluorophenoxy)pyridin-3-yl)quinazolin-8-yl)phenyl)acrylamide], the inhibition at 0.1 µM was greater than 50%. `C=CC(=O)N1CCC(c2cc(-c3ccc(C(=O)Nc4cccc(F)c4)nc3)cc3cncnc23)C1` (centres unmarked) [C097, 5-(8-(1-acryloylpyrrolidin-3-yl)quinazolin-6-yl)-N-(3-fluorophenyl)picolinamide] displayed an inhibition at 0.1 µM of less than 50%.

As for `C=CC(=O)Nc1cccc(-c2cc(-c3ccc(Oc4cc(C(F)(F)F)ccn4)cc3)cc3cnc(N)nc23)c1` [C098, N-(3-(2-amino-6-(4-((4-(trifluoromethyl)pyridin-2-yl)oxy)phenyl)quinazolin-8-yl)phenyl)acrylamide], the inhibition at 0.1 µM is less than 50%.

As for `C=CC(=O)Nc1cccc(-c2cc(-c3ccc(C(=O)N4CCOCC4)cc3)cc3cncnc23)c1` [C101, N-(3-(6-(4-(morpholine-4-carbonyl)phenyl)quinazolin-8-yl)phenyl)acrylamide], the inhibition at 0.1 µM is greater than 50%. In turn, `C=CC(=O)Nc1cccc(-c2cc(-c3cncc(Cl)c3)cc3cnc(N)nc23)c1` [C103, N-(3-(2-amino-6-(5-chloropyridin-3-yl)quinazolin-8-yl)phenyl)acrylamide] showed an inhibition at 0.1 µM greater than 50% and a concentration for half-maximal inhibition (IC50) of less than 0.1 µM. In turn, `C=CC(=O)N1CCC(c2cc(-c3ccc(Oc4cc(C(F)(F)F)ccn4)cc3)cc3cnc(N)nc23)C1` (centres unmarked) [C104, 1-(3-(2-amino-6-(4-((4-(trifluoromethyl)pyridin-2-yl)oxy)phenyl)quinazolin-8-yl)pyrrolidin-1-yl)prop-2-en-1-one] gave an inhibition at 0.1 µM of less than 50%. `C=CC(=O)Nc1cccc(-c2cc(-c3ccc(Oc4ncccc4Cl)cc3F)cc3cncnc23)c1` [C106, N-(3-(6-(4-((3-chloropyridin-2-yl)oxy)-2-fluorophenyl)quinazolin-8-yl)phenyl)acrylamide]: the inhibition at 0.1 µM is greater than 50% and the IC50 is less than 0.1 µM. As for `C=CC(=O)N1CCC(c2cc(-c3ccc(Oc4ccccn4)cc3)cc3cncnc23)C1` (centres unmarked) [C107, 1-(3-(6-(4-(pyridin-2-yloxy)phenyl)quinazolin-8-yl)pyrrolidin-1-yl)prop-2-en-1-one], the inhibition at 0.1 µM is greater than 50%. `C=CC(=O)N1CCC(c2cc(-c3ccc(Oc4ncccc4F)cc3F)cc3cncnc23)C1` (centres unmarked) [C108, 1-(3-(6-(2-fluoro-4-((3-fluoropyridin-2-yl)oxy)phenyl)quinazolin-8-yl)pyrrolidin-1-yl)prop-2-en-1-one] registered an inhibition at 0.1 µM greater than 50%.
